Assay results as given in PubChem BioAssay (NCI).
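Compound exposure: 48 hours, 5 concentrations, 96-well plates. Here, GI50 denotes the concentration required for 50% inhibition of growth. TGI: total growth inhibition.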

What was measured:
Assay in all cases: growth of human tumour cells (NCI), 48 h
[1] = system: NCI/ADR-RES ovarian
[2] = system: NCI-H460 lung
[3] = system: HOP-62 NSCLC
[4] = system: OVCAR-3 ovarian
[5] = system: SR leukemia
[6] = system: HL-60(TB) leukemia
[7] = system: UACC-62 melanoma
[8] = system: K-562 leukemia
[9] = system: MALME-3M melanoma
[10] = system: HCT-116 colon
[11] = system: HS 578T breast
[12] = system: SF-539 CNS
[13] = system: SNB-19 CNS
[14] = system: T-47D breast
[15] = system: SK-MEL-2 melanoma
[16] = system: A549 NSCLC
[17] = system: MCF7 breast
[18] = system: HCC-2998 colon
[19] = system: MDA-MB-435
[20] = system: MDA-MB-231 breast
[21] = system: HCT-15 colon
[22] = system: HT29 colon
[23] = system: SW-620 colon
[24] = system: NCI-H23 lung
[25] = system: UO-31 renal
[26] = system: RPMI-8226 leukemia
[27] = system: SF-268 CNS
[28] = system: CAKI-1 renal
[29] = system: U251 CNS
[30] = system: CCRF-CEM leukemia
[31] = system: SK-OV-3 ovarian
[32] = system: BT-549 breast
[33] = system: EKVX NSCLC
[34] = system: PC-3 prostate
[35] = system: SK-MEL-28 melanoma
[36] = system: NCI-H522 lung
[37] = system: OVCAR-8 ovarian
[38] = system: SK-MEL-5 melanoma
[39] = system: M14 melanoma
[40] = system: KM12 colon
[41] = system: TK-10 renal
[42] = system: OVCAR-5 ovarian
[43] = system: RXF 393 renal
[44] = system: UACC-257 melanoma
[45] = system: DU-145 prostate
[46] = system: OVCAR-4 ovarian
[47] = system: HOP-92 NSCLC
[48] = system: SN12C renal
[49] = system: ACHN renal
[50] = system: 786-0 renal
[51] = system: COLO 205 colon
[52] = system: SF-295 CNS
[53] = system: NCI-H226 lung
[54] = system: IGROV1 ovarian
[55] = system: MOLT-4 leukemia

## C=C1C[C@@]2(C)C(CC[C@]3(C)C2CC=C2C4CC(C)(C)C[C@@H](OC(=O)/C(C)=C\C)[C@]4(C(=O)O)CC[C@]23C)C(C)(C)C1=O (stereo not given in full)
[1]
  GI50: 3.45 µM
  TGI: 33.4 µM
[2]
  GI50: 3.22 µM
  TGI: 11 µM
[3]
  GI50: 3.43 µM
  TGI: 22.3 µM
[4]
  GI50: 2.08 µM
  TGI: 5 µM
[5]
  GI50: 1.55 µM
  TGI: 8.92 µM
[6]
  GI50: 2.56 µM
  TGI: 7.08 µM
[7]
  GI50: 2.93 µM
  TGI: 10.3 µM
[8]
  GI50: 2.45 µM
  TGI: 11.5 µM
[9]
  GI50: 3.89 µM
  TGI: 15.6 µM
[10]
  GI50: 1.81 µM
  TGI: 3.91 µM
[11]
  GI50: 5.21 µM
  TGI: 34.4 µM
[12]
  GI50: 2.75 µM
  TGI: 8.55 µM
[13]
  GI50: 4.65 µM
  TGI: 17.4 µM
[14]
  GI50: 3.25 µM
  TGI: 15.2 µM
[15]
  GI50: 5.93 µM
  TGI: 24.4 µM
[16]
  GI50: 3.8 µM
  TGI: 25.8 µM
[17]
  GI50: 4.06 µM
  TGI: 19.2 µM
[18]
  GI50: 2.02 µM
  TGI: 4.52 µM
[19]
  GI50: 2.83 µM
  TGI: 8.61 µM
[20]
  GI50: 5.96 µM
  TGI: 31.4 µM
[21]
  GI50: 2.23 µM
  TGI: 7.88 µM
[22]
  GI50: 2.55 µM
  TGI: 6.81 µM
[23]
  GI50: 2.74 µM
  TGI: 9.31 µM
[24]
  GI50: 2.87 µM
  TGI: 11.1 µM
[25]
  GI50: 1.89 µM
  TGI: 3.92 µM
[26]
  GI50: 1.42 µM
  TGI: 5.69 µM
[27]
  GI50: 6.76 µM
  TGI: 28 µM
[28]
  GI50: 1.88 µM
  TGI: 4.72 µM
[29]
  GI50: 2.46 µM
  TGI: 6.83 µM
[30]
  GI50: 2.11 µM
  TGI: 22.9 µM
[31]
  GI50: 14.3 µM
  TGI: 33.4 µM
[32]
  GI50: 1.91 µM
  TGI: 3.68 µM
[33]
  GI50: 4.95 µM
  TGI: 19 µM
[34]
  GI50: 1.99 µM
  TGI: 5.94 µM
[35]
  GI50: 2.32 µM
  TGI: 5.44 µM
[36]
  GI50: 2.76 µM
  TGI: 10.1 µM
[37]
  GI50: 3.75 µM
  TGI: 27.5 µM
[38]
  GI50: 3.35 µM
  TGI: 11.2 µM
[39]
  GI50: 2.39 µM
  TGI: 8.49 µM
[40]
  GI50: 3.84 µM
  TGI: 15.9 µM
[41]
  GI50: 4.57 µM
  TGI: 17.9 µM
[42]
  GI50: 3.17 µM
  TGI: 10.3 µM
[43]
  GI50: 1.76 µM
  TGI: 3.57 µM
[44]
  GI50: 3.53 µM
  TGI: 16.4 µM
[45]
  GI50: 4.37 µM
  TGI: 16 µM
[46]
  GI50: 4.76 µM
  TGI: 18.2 µM
[47]
  GI50: 2.34 µM
  TGI: 7.15 µM
[48]
  GI50: 3.22 µM
  TGI: 15.2 µM
[49]
  GI50: 2.04 µM
  TGI: 4.12 µM
[50]
  GI50: 2 µM
  TGI: 3.9 µM
[51]
  GI50: 3.59 µM
  TGI: 17.6 µM
[52]
  GI50: 2.95 µM
  TGI: 11.1 µM
[53]
  GI50: 2.23 µM
  TGI: 6.16 µM
[54]
  GI50: 3.05 µM
  TGI: 10.1 µM
[55]
  GI50: 2.91 µM
  TGI: 24.8 µM
